Where two headings read alike, the source gives them in different places.
Tested on: highly insulin-resistant T2DM patients poorly controlled with insulin plus metformin and/or thiazolidinediones
Details: for Postprandial glucose, change from baseline, mean (95% CI): 120 minutes by OGTT; for Fasting plasma glucose, change from baseline, mean (95% CI) / HbA1c, change from baseline, mean (95% CI) / Weight, change from baseline, mean (95% CI) / Total daily insulin dose, change from baseline, mean (95% CI): ANCOVA-adjusted; for Patients with HbA1c < 7.0%, No., response / Patients with ↓ HbA1c ≧ 0.5%, No., response: of 23 patients; for HbA1c, mean (SD), End of Double-blind (Week 12 LOCF): Cohort 2; for Patients who required up-titration of insulin: throughout the 12-week double-blind period, placebo arm 4 patients; for Patients exposed to study medication for ≧84 days prior to insulin up-titration: versus 39.1% in the placebo arm
Method: Criteria for management of hyperglycemia were determined by fasting plasma glucose (FPG) measurements. For any FPG level >240 mg/dL at weeks 4 and 6, >220 mg/dL at week 8, or >200 mg/dL at week 10, the patient would be scheduled for a follow-up visit in 3 to 5 days. If FPG was still above the threshold at follow-up, a visit was scheduled in order to increase the insulin dose as clinically indicated. Patients who further lacked glycemic control despite up-titration, or whose modified insulin dose exceeded baseline, were discontinued from blinded treatment and entered into follow-up.
All patients were on insulin-sensitizer therapy for at least 6 weeks prior to enrollment and insulin-based therapy for at least 12 weeks prior to enrollment. The study protocol defined insulin-sensitizer therapy as metformin (stable dose ≧1000 mg) and/or pioglitazone (stable dose ≧30 mg) or rosiglitazone (stable dose 4 mg). Insulin-based therapy was defined as subcutaneous insulin for at least 12 weeks prior to enrollment, with 2 minimum insulin daily dose equivalent to 50 units (median 85 to 93 units across all study arms) of U100 insulin per day. The insulin regimen must have been stable for at least 6 weeks. In addition to 10 mg dapagliflozin or 20 mg dapagliflozin daily or placebo, 74.6% of patients received metformin (≧1000 mg daily) plus insulin; 16.9% of patients received metformin (≧1000 mg daily) plus pioglitazone (≧30 mg daily) or rosiglitazone (4 mg daily) plus insulin and 8.5% of patients received pioglitazone (≧30 mg daily) or rosiglitazone (4 mg daily) plus insulin.
Patients in Cohort 1 were evaluated for safety only. Patients in Cohort 2 were evaluated for safety and efficacy. The primary efficacy measure was change from baseline in HbAlc, at week 12, last observation carried forward (LOCF). If no week 12 assessment was available, the last observation prior to week 12 was used. Secondary efficacy measures included changes from baseline at week 12 (LOCF) in FPG and insulin dose, the proportion of patients achieving a decrease in HbAlc>0.5% from baseline at week 12 (LOCF), and the proportion of patients achieving HbAlc<7% at week 12 (LOCF). Tertiary endpoints included changes from baseline in total body weight and in postprandial glucose (PPG) measured by an oral glucose tolerance test (OGTT).
Patients in Cohort 2 were evaluated for safety and efficacy. The primary efficacy measure was change from baseline in HbAlc at week 12, last observation carried forward (LOCF). The analysis was done excluding data after up-titration of insulin. If no week 12 assessment was available, the last observation prior to week 12 was used.
For Cohort 2, the sample size target of 22 patients per treatment group was chosen to allow for the calculation of 95% confidence intervals for the primary endpoint with a half-width of 0.42% for each treatment group. This assumed a 1% standard deviation for the primary endpoint in each of the dapagliflozin and placebo arms. With the same assumption, the half-width of a 95% confidence interval for the difference between any two treatment mean changes was estimated to be 0.59%. The primary efficacy data set consisted of all randomized patients who took at least one dose of double-blind study medication during the treatment phase. The analyses of the efficacy variables (except change from baseline in insulin dose) were done excluding data after up-titration of insulin. The analyses for changes from baseline in HbAlc, FPG, insulin dose, and total body weight at week 12 (LOCF) were performed using an analysis of covariance (ANCOVA) model with treatment group as an effect and baseline value as a covariate. Point estimates and 95% confidence intervals were calculated for mean changes within each treatment group and for differences in mean changes between the dapagliflozin and placebo groups.

[1] = Dapagliflozin 10 mg + insulin + OAD, week 12 LOCF
[2] = Dapagliflozin 10 mg + insulin + OAD, week 12 LOCF, excludes data after insulin up-titration
[3] = Dapagliflozin 10 mg + insulin + OAD, week 12 LOCF, excludes data after insulin up-titration, listed as dapagliflozin
[4] = Dapagliflozin 20 mg + insulin + OAD, excludes data after insulin up-titration
[5] = Dapagliflozin 20 mg + insulin + OAD, week 12 LOCF
[6] = Dapagliflozin 20 mg + insulin + OAD, week 12 LOCF, excludes data after insulin up-titration
[7] = Dapagliflozin 20 mg + insulin + OAD, week 12 LOCF, excludes data after insulin up-titration, listed as dapagliflozin

## CCOc1ccc(Cc2cc([C@@H]3O[C@H](CO)[C@@H](O)[C@H](O)[C@H]3O)ccc2Cl)cc1 [Dapagliflozin, (2S,3R,4R,5S,6R)-2-(4-chloro-3-(4-ethoxybenzyl)phenyl)-6-(hydroxymethyl)tetrahydro-2H-pyran-3,4,5-triol]
[1]
  Patients with ↓ HbA1c ≧ 0.5%, difference in proportions vs placebo + insulin + OAD (95% CI): 49.4 (20.1 to 72.4) %
  Total daily insulin dose change from baseline, difference vs placebo + insulin + OAD, mean (95% CI): −3.1 (−10.7 to 4.6) U
  Weight change from baseline, difference vs placebo + insulin + OAD, mean (95% CI): −2.6 (−4.0 to −1.2) kg
[2]
  Postprandial glucose, change from baseline, mean (95% CI): −34.3 (−67.5 to −1.1) mg/dL
  Fasting plasma glucose, change from baseline, mean (95% CI): 2.4 (−13.6 to 18.3) mg/dL
  HbA1c, change from baseline, mean (95% CI): −0.61 (−0.87 to −0.36) %
  Weight, change from baseline, mean (95% CI): −4.5 (−5.5 to −3.5) kg
  Patients with HbA1c < 7.0%, (%), response: 13.0%
  Patients with ↓ HbA1c ≧ 0.5%, (%), response: 65.2%
  Patients with HbA1c < 7.0%, No., response: 3
  Patients with ↓ HbA1c ≧ 0.5%, No., response: 15
[3]
  Fasting plasma glucose, change from baseline, mean (95% CI): 2.4 mg/dL
  Weight, change from baseline, mean (95% CI): -4.5 kg
Dapagliflozin 10 mg + insulin + OAD, week 12 LOCF, includes data after insulin up-titration
  Total daily insulin dose, change from baseline, mean (95% CI): −1.4 (−6.6 to 3.9) U
Dapagliflozin 10 mg + insulin + OAD, week 12 LOCF, listed as dapagliflozin
  HbA1c change from baseline, difference vs placebo + insulin + OAD, mean (95% CI): −0.70%
Dapagliflozin 10 mg once daily + insulin (50% of usual dose) + OAD, excludes data after insulin up-titration
  HbA1c, mean (SD), End of Double-blind (Week 12 LOCF): 7.8 (0.7) %
[4]
  Fasting plasma glucose, mean (SD), End of Double-blind (Week 12 LOCF): 149.4 (32.0) mg/dL
  Weight, mean (SD), End of Double-blind (Week 12 LOCF): 97.8 (14.1) kg
Dapagliflozin 20 mg + insulin + OAD, includes data after insulin up-titration, U = units of U100 insulin
  Total daily insulin dose, mean (SD), End of Double-blind (Week 12 LOCF): 53.5 (32.1) U
Dapagliflozin 20 mg + insulin + OAD, measured at 120 minutes by OGTT, excludes data after insulin up-titration
  Postprandial glucose, mean (SD), End of Double-blind (Week 12 LOCF): 272.6 (51.2) mg/dL
[5]
  Fasting plasma glucose change from baseline, difference vs placebo + insulin + OAD, mean (95% CI): −27.4 (−50.3 to −4.6) mg/dL
  HbA1c change from baseline, difference vs placebo + insulin + OAD, mean (95% CI): −0.78 (−1.16 to −0.40) %
  Patients with ↓ HbA1c ≧ 0.5%, difference in proportions vs placebo + insulin + OAD (95% CI): 49.4 (20.1 to 72.4) %
  Total daily insulin dose change from baseline, difference vs placebo + insulin + OAD, mean (95% CI): −2.5 (−10.2 to 5.1) U
  Weight change from baseline, difference vs placebo + insulin + OAD, mean (95% CI): −2.4 (−3.8 to −1.0) kg
[6]
  Postprandial glucose, change from baseline, mean (95% CI): −41.9 (−74.8 to −8.9) mg/dL
  Fasting plasma glucose, change from baseline, mean (95% CI): −9.6 (−25.6 to 6.3) mg/dL
  HbA1c, change from baseline, mean (95% CI): −0.69 (−0.94 to −0.43) %
  Weight, change from baseline, mean (95% CI): −4.3 (−5.3 to −3.3) kg
  Patients with HbA1c < 7.0%, (%), response: 4.3%
  Patients with ↓ HbA1c ≧ 0.5%, (%), response: 65.2%
  Patients with HbA1c < 7.0%, No., response: 1
  Patients with ↓ HbA1c ≧ 0.5%, No., response: 15
[7]
  Fasting plasma glucose, change from baseline, mean (95% CI): -9.6 mg/dL
  Weight, change from baseline, mean (95% CI): -4.3 kg
Dapagliflozin 20 mg + insulin + OAD, week 12 LOCF, includes data after insulin up-titration
  Total daily insulin dose, change from baseline, mean (95% CI): −0.8 (−6.1 to 4.5) U
Dapagliflozin 20 mg + insulin + OAD, week 12 LOCF, listed as dapagliflozin
  HbA1c change from baseline, difference vs placebo + insulin + OAD, mean (95% CI): −0.78%
Dapagliflozin 20 mg once daily + insulin (50% of usual dose) + OAD, excludes data after insulin up-titration
  HbA1c, mean (SD), End of Double-blind (Week 12 LOCF): 7.8 (0.6) %
Dapagliflozin 10 mg arm (n = 24)
  Patients who required up-titration of insulin: 1 patient
Dapagliflozin 10 mg arm
  Patients exposed to study medication for ≧84 days prior to insulin up-titration: 66.7%
Dapagliflozin 20 mg arm (n = 24)
  Patients who required up-titration of insulin: 3 patients
Dapagliflozin 20 mg arm
  Patients exposed to study medication for ≧84 days prior to insulin up-titration: 66.7%
Dapagliflozin treatment (dose not distinguished), insulin dose reduced by 50%
  Additional weight loss compared to placebo: -2.5 kg
insulin-resistant patients who had their baseline insulin reduced 50%
  HbAlc, PPG and weight versus placebo, in words: decreased HbAlc, PPG and weight more than placebo
Week 12 (LOCF)
  Weight lowering versus placebo, in words: more likely to lower weight than placebo
